Measurements as given in patent publication US20150119373A1, “NOVEL BETULINIC ACID DERIVATIVES AS HIV INHIBITORS” (HETERO RESEARCH FOUNDATION, priority 2012, published 2015).
Where two headings read alike, the source gives them in different places.

Columns and labels:
HIV-1 strain 92HT599 = experiment: Antiviral activity: p24 estimation in MT2 cells infected with HIV-1 strain 92HT599; format: cell-based; settings: for inhibition at 0.1 µM: read-out: Antiviral activity % inhibition 100 nM; for inhibition at 1 µM: read-out: Antiviral activity % inhibition 1000 nM
Method: MT2 cells were infected with HIV-1 strain 92HT599 (10 TCID 50/30000 cells). The infected cells were plated at the concentration of […] cells per well in 96 well plate. Test compound was added to the micro plate in defined format with the final concentration of DMSO (vehicle) is not more than 1%. Incubation was carried out in CO2 incubator for ˜96 hours for viral infection. At the end of incubation period an aliquot from each well was taken for p24 estimation. The quantitation of p24 is an index for antiviral activity of the compound. Percent inhibition was calculated with reference to control values (vehicle controls).
p-24 estimation was carried out using Advance biosciences kit as per the procedure detailed by supplier.

[1] = Single dose oral pharmacokinetic study in mice; format: in vivo; settings: Oral PK @ 30 mg/ kg dose in mice (Table 6); for AUC(0-inf) / Cmax / Tmax / AUC(0-t): mouse, plasma; for AUC(0-t): read-out: AUCt
Method: The test item was administered through oral route to animals (rat/mice) at 30 mg/kg dose in a suitable vehicle at 10 ml/kg dose volume. Blood samples (˜50 uL at each time point) were collected from retro-orbital plexus using K3 EDTA as anticoagulant in eppendorf tubes at defined time intervals under light ether anesthesia. The samples were centrifuged at 3500×g to separate plasma and stored at −80° C. until analysis.
Sample analysis: Test samples were analyzed using LC-MS-MS after developing fit-for-purpose method for each of test compound.

[2] = Cyto-toxicity assay (MTT) in MT2 cells without virus; format: cell-based; settings: human
Method: For cyto-toxicity assay the same amount of MT2 cells as in antiviral assay without virus was added to the 96 well plates. The cyto-toxicity was measured using MTT reagent in parallel with p24 estimation. The percent viability is calculated in comparison with vehicle control.

[3] = Human immunodeficiency virus 1, 100 nM, MT2 cells, HIV-1 92HT599, ~96 hours, p24
[4] = Human immunodeficiency virus 1, 1000 nM, MT2 cells, HIV-1 92HT599, ~96 hours, p24
[5] = Human immunodeficiency virus 1, MT2, 96 h

Molecule CC(C)(CC(=O)O[C@H]1CC[C@]2(C)[C@H]3CC[C@@H]4[C@H]5[C@H](C6(C)CC6)CC[C@]5(C(=O)N5CCOCC5)CC[C@@]4(C)[C@]3(C)CC[C@H]2C1(C)C)C(=O)O [Example 27, 2,2-dimethyl-4-oxo-4-(((1R,3aS,5aR,5bR,7aR,9S,11aR,1bR,13aR,13bR)-5a,5b,8,8,11a-pentamethyl-1-(1-methylcyclopropyl)-3a-(morpholine-4-carbonyl)icosahydro-1H-cyclopenta[a]chrysen-9-yl)oxy)butanoic acid] has an inhibition at 0.1 µM (HIV-1 strain 92HT599; [3]) of 94%, an inhibition at 1 µM (HIV-1 strain 92HT599; [4]) of 88% and a Tlast [1] of 48 h. For the same molecule, the AUC(0-inf) [1] was 106 µg·h/mL, the Cmax [1] was 7000 ng/mL and the Tmax [1] was 3.5 h. The AUC(0-t) [1] was 101 µg·h/mL, the viability at 100 nM [2] was 100% and the viability at 1000 nM [2] was 94%.

[2H]C([2H])([2H])C(CC(=O)O[C@H]1CC[C@]2(C)[C@H]3CC[C@@H]4[C@H]5[C@H](C6(C)CC6)CC[C@]5(C(=O)N5CCN(CC)CC5)CC[C@@]4(C)[C@]3(C)CC[C@H]2C1(C)C)(C(=O)O)C([2H])([2H])[2H] [Example 30] showed an inhibition at 0.1 µM (HIV-1 strain 92HT599; [3]) of 97%, an inhibition at 1 µM (HIV-1 strain 92HT599; [4]) of 99% and a Tlast [1] of 48 h. For the same molecule, the AUC(0-inf) [1] was 78.5 µg·h/mL, the Cmax [1] was 4700 ng/mL and the Tmax [1] was 3.5 h. The AUC(0-t) [1] was 67.1 µg·h/mL, the viability at 100 nM [2] was 83% and the viability at 1000 nM [2] was 82%.

Work on COCCOC1CCN(C(=O)[C@]23CC[C@@H](C4(C)CC4)[C@@H]2[C@H]2CC[C@@H]4[C@@]5(C)CC[C@H](OC(=O)[C@H]6C[C@@H](C(=O)O)C6(C)C)C(C)(C)[C@@H]5CC[C@@]4(C)[C@]2(C)CC3)CC1 [Example 42, (1R,3S)-3-((((1R,3aS,5aR,5bR,7aR,9S,11aR,11bR,13aR,13bR)-3a-(4-(2-methoxyethoxyl)piperidine-1-carbonyl)-5a,5b,8,8,8,11a-pentamethyl-1-(1-methylcyclopropyl)icosahydro-1H-cyclopenta[a]chrysen-9-yl)oxy)carbonyl)-2,2-dimethylcyclobutane-1-carboxylic acid] yielded an inhibition at 0.1 µM (HIV-1 strain 92HT599; [5]) of 94%, an inhibition at 1 µM (HIV-1 strain 92HT599; [5]) of 99% and a Tlast [1] of 48 h. The Cmax [1] was 7400 ng/mL, the Tmax [1] was 32 h and the AUC(0-t) [1] was 300 µg·h/mL. The viability at 100 nM ([2]; 100 nM, MT2 cells, MTT, read-out: Cytotoxicity % viability 100 nM) was 86% and the viability at 1000 nM ([2]; 1000 nM, MT2 cells, MTT, read-out: Cytotoxicity % viability 1000 nM) was 84%.

Molecule [2H]C([2H])([2H])C(CC(=O)O[C@H]1CC[C@]2(C)[C@H]3CC[C@@H]4[C@H]5[C@H](C(=C)C)CC[C@]5(C(=O)N[C@@H]5C[C@H](C(=O)N6CCCCC6)C5(C)C)CC[C@@]4(C)[C@]3(C)CC[C@H]2C1(C)C)(C(=O)O)C([2H])([2H])[2H] [Example 24, 4-(((1R,3aS,5aR,5bR,7aR,9S,11aR,11bR,13aR,13bR)-3a-(((1R,3S)-2,2-dimethyl-3-(piperidine-1-carbonyl)cyclobutyl)carbamoyl)-5a,5b,8,8,11a-pentamethyl-1-(prop-1-en-2-yl)icosahydro-1H-cyclopenta[a]chrysen-9-yl)oxy)-2,2-bis(methyl-d3)-4-oxobutanoic acid] has an inhibition at 0.1 µM (HIV-1 strain 92HT599; [3]) of 100%, an inhibition at 1 µM (HIV-1 strain 92HT599; [4]) of 100% and a Tlast [1] of 24 h. The AUC(0-inf) [1] was 123 µg·h/mL, the Cmax [1] was 9100 ng/mL and the Tmax [1] was 2 h. For the same molecule, the AUC(0-t) [1] was 70 µg·h/mL, the viability at 100 nM [2] was 83% and the viability at 1000 nM [2] was 99%.

Work on [2H]C([2H])([2H])C(N1CCN(C(=O)[C@H]2C[C@@H](NC(=O)[C@]34CC[C@@H](C(=C)C)[C@@H]3[C@H]3CC[C@@H]5[C@@]6(C)CC[C@H](OC(=O)CC(C)(C)C(=O)O)C(C)(C)[C@@H]6CC[C@@]5(C)[C@]3(C)CC4)C2(C)C)CC1)C([2H])([2H])[2H] [Example 8, 4-((1R,3aS,5aR,5bR,7aR,9S,11aR,11bR,13aR,13bR)-3a-((1R,3S)-3-(4-(1-methylethyl-2,2,2,1′,1′,1′-D6)piperazine-1-carbonyl)-2,2-dimethylcyclobutylcarbamoyl)-5a,5b,8,8,11a-pentamethyl-1-(prop-1-en-2-yl)icosahydro-1H-cyclopenta[a]chrysen-9-yloxy)-2,2-dimethyl-4-oxobutanoic acid] yielded an inhibition at 0.1 µM (HIV-1 strain 92HT599; [3]) of 100%, an inhibition at 1 µM (HIV-1 strain 92HT599; [4]) of 100% and a viability at 100 nM [2] of 90%. It also gave a viability at 1000 nM [2] of 97%.

Molecule CC(C)(C)OC(=O)N1CCN(C(=O)[C@]23CC[C@@H](C4(C)CC4)[C@@H]2[C@H]2CC[C@@H]4[C@@]5(C)CC[C@H](OC(=O)[C@H]6C[C@@H](C(=O)O)C6(C)C)C(C)(C)[C@@H]5CC[C@@]4(C)[C@]2(C)CC3)CC1 [Example 38] has an inhibition at 0.1 µM (HIV-1 strain 92HT599; [3]) of 68%, an inhibition at 1 µM (HIV-1 strain 92HT599; [4]) of 99% and a viability at 100 nM [2] of 85%. The viability at 1000 nM [2] was 83%.

CC(C)(CC(=O)O)CC(=O)O[C@H]1CC[C@]2(C)[C@H]3CC[C@@H]4C5[C@H](C6(C)CC6)CC[C@]5(C(=O)N[C@H]5C[C@@H](C(=O)N6CCOCC6)C5(C)C)CC[C@@]4(C)[C@]3(C)CC[C@H]2C1(C)C (stereo partly drawn) [Example 52, 5-(((1R,3aS,5aR,5bR,7aR,9S,11aR,11bR,13aR)-3a-(((1S,3R)-2,2-dimethyl-3-(morpholine-4-carbonyl)cyclobutyl)carbamoyl)-5a,5b,8,8,11a-pentamethyl-1-(1-methylcyclopropyl)icosahydro-1H-cyclopenta[a]chrysen-9-yl)oxy)-3,3-dimethyl-5-oxopentanoic acid] gave an inhibition at 0.1 µM (HIV-1 strain 92HT599; [3]) of 100%, an inhibition at 1 µM (HIV-1 strain 92HT599; [4]) of 100% and a viability at 100 nM [2] of 95%. For the same molecule, the viability at 1000 nM [2] was 85%.

In the case of C=C(C)[C@@H]1CC[C@]2(C(=O)N3CCCCC3)CC[C@]3(C)[C@H](CC[C@@H]4[C@@]5(C)CC[C@H](OC(=O)[C@H]6[C@@H](CC(=O)O)C6(C)C)C(C)(C)[C@@H]5CC[C@]43C)[C@@H]12 [Compound 2, 2-((1R,3S)-2,2-dimethyl-3-(((1R,3aS,5aR,5bR,7aR,9S,11aR,11bR,13aR,13bR)-5a,5b,8,8,11a-pentamethyl-3a-(piperidine-1-carbonyl)-1-(prop-1-en-2-yl)icosahydro-1H-cyclopenta[a]chrysen-9-yloxy)carbonyl)cyclopropyl)acetic acid], the inhibition at 0.1 µM (HIV-1 strain 92HT599; [3]) was 77%, the inhibition at 1 µM (HIV-1 strain 92HT599; [4]) was 98% and the viability at 100 nM [2] was 96%. It also gave a viability at 1000 nM [2] of 95%.

Work on CC(CO)(CO)C(=O)N1CCN(C(=O)[C@]23CC[C@@H](C4(C)CC4)[C@@H]2[C@H]2CC[C@@H]4[C@@]5(C)CC[C@H](OC(=O)[C@H]6C[C@@H](C(=O)O)C6(C)C)C(C)(C)[C@@H]5CC[C@@]4(C)[C@]2(C)CC3)CC1 [Example 36] yielded an inhibition at 0.1 µM (HIV-1 strain 92HT599; [3]) of 33%, an inhibition at 1 µM (HIV-1 strain 92HT599; [4]) of 99% and a viability at 100 nM [2] of 77%. For the same molecule, the viability at 1000 nM [2] was 90%.

Work on C=C(C)[C@@H]1CC[C@]2(c3nnc(-c4ccccc4)o3)CC[C@]3(C)[C@H](CC[C@@H]4[C@@]5(C)CC[C@H](OC(=O)[C@H]6[C@@H](CC(=O)O)C6(C)C)C(C)(C)[C@@H]5CC[C@]43C)[C@@H]12 [Example 5, 2-((1R,3S)-2,2-dimethyl-3-(((1R,3aS,5aR,5bR,7aR,9S,11aR,11bR,13aR,13bR)-5a,5b,8,8,11a-pentamethyl-3a-(5-phenyl-1,3,4-oxadiazol-2-yl)-1-(prop-1-en-2-yl)icosa hydro-1H-cyclopenta[a]chrysen-9-yloxy)carbonyl)cyclopropyl)acetic acid] yielded an inhibition at 0.1 µM (HIV-1 strain 92HT599; [3]) of 49%, an inhibition at 1 µM (HIV-1 strain 92HT599; [4]) of 92% and a viability at 100 nM [2] of 95%. The viability at 1000 nM [2] was 98%.

COCCOCCOC1CCN(C(=O)[C@]23CC[C@@H](C4(C)CC4)[C@@H]2[C@H]2CC[C@@H]4[C@@]5(C)CC[C@H](OC(=O)[C@H]6C[C@@H](C(=O)O)C6(C)C)C(C)(C)[C@@H]5CC[C@@]4(C)[C@]2(C)CC3)CC1 [Example 44, (1R,3S)-3-((((1R,3aS,5aR,5bR,7aR,9S,11aR,11bR,13aR,13bR)-3a-(4-(2-(2-methoxyethoxyl)ethoxy)piperidine-1-carbonyl)-5a,5b,8,8,11a-pentamethyl-1-(1-methylcyclopropyl)icosahydro-1H-cyclopenta[a]chrysen-9-yl)oxy)carbonyl)-2,2-dimethylcyclobutane-1-carboxylic acid] gave an inhibition at 0.1 µM (HIV-1 strain 92HT599; [3]) of 97%, an inhibition at 1 µM (HIV-1 strain 92HT599; [4]) of 100% and a viability at 100 nM [2] of 93%. It also gave a viability at 1000 nM [2] of 86%.
